These results are taken from patent US6280760A, “Peptide-coated implants and methods for producing same” (Merck Patent Gesellschaft mit beschraenkter Haftung, priority 1997, dated 2001).

The subject of assay [1] is osteoblast cell cultures. The assay is described as follows: Inhibition of osteoblast binding to thiolpeptide 1-coated surfaces by dissolved cyclic RGDfK in the adhesion medium. The assay is classed as cell-based, mouse, human, rat. As to conditions: dissolved peptide in the adhesion medium; coating 10 μM; FIG. 4. As to the method: FIG. 4: Adhesion of osteoblasts to test surfaces coated with thiolpeptide 1-SMPP derivative (10 μM in the coating solution) (see FIG. 2)
x axis: Concentration of dissolved cyclo-RGDfK (without molecular anchor) in the adhesion medium (μM),
(§1) To do this, 48-well plates (Costar, "non-tissue culture treated", Art. No. 3547) were each coated with 250 μl of PBS (phosphate-buffered saline), pH=8.3, 2% BSA, per well and incubated overnight at room temperature in order to generate a BSA layer on the polystyrene. The plates were then washed with 250 μl of PBS, pH=8.3, per well and incubated at room temperature for 1 hour with 250 μl each of a solution containing 100 μg/ml of SMPB in PBS, pH 8.3. Washing of the wells was then carried out three times using 250 μl of PBS, pH 8.3, each time. For the preparation of the coating solutions, the appropriate thiol-RGD peptide was prepared in the following final concentrations in PBS, pH 8.3: 1 nM, 10 nM, 100 nM, 1 μM, 10 μM, 100 μM and 1 mM. After addition of 250 μl each of coating solution/well, the plates were incubated at room temperature overnight and then washed three times with PBS, pH 8.3. […]
(§2) The quantification of the adhered cells was carried out indirectly via the activity determination of the cellular enzyme N-acetylhexosaminidase using an appropriate standard curve according to the method of Landegren (1984, J. Immunol. Methods, 67: 379-388).

For assay [2], the system named is primary rat osteoblasts. Kind of assay: Adhesion of primary rat osteoblasts to BSA-pretreated polystyrene surfaces coated with thiol-RGD peptides via sulpho-SMPB. It is filed as cell-based. The following applies: 48,000 cells/cm^2, 1 hour. As for the experimental part:
(§3) The covalent coupling of the peptides according to the invention with sulphosuccinimidyl 4-(p-maleimidophenyl)butyrate (sulpho-SMPB) to culture surfaces of polystyrene precoated with bovine serum albumin (BSA) was accomplished following the established processes of Singer et al., 1987, J. Cell. Biol. 104: 573, or of Ruoslahti et al. (1982, Methods. Enzymol., 82: 803-831).
as §1, with “mM.” for “mM. After addition of 250 μl each of coating solution/well, the plates were incubated at room temperature overnight and then washed three times with PBS, pH 8.3.”
as §2

Assay [3] has as its system MC3T3 H1 osteoblasts. Kind of assay: Adhesion of MC3T3 H1 osteoblasts to BSA-pretreated polystyrene surfaces coated with thiol-RGD peptides via sulpho-SMPB. It is filed as cell-based, mouse. The following applies: for stimulation of the adhesion of cultured mouse MC3T3 H1 osteoblasts: BSA-pretreated polystyrene, peptide coupled via sulpho-SMPB, FIG. 2. As for the experimental part: as §3
To do this, 48-well plates (Costar, "non-tissue culture treated", Art. No. 3547) were each coated with 250 μl of PBS (phosphate-buffered saline), pH=8.3, 2% BSA, per well and incubated overnight at room temperature in order to generate a BSA layer on the polystyrene. The plates were then washed with 250 μl of PBS, pH=8.3, per well and incubated at room temperature for 1 hour with 250 μl each of a solution containing 100 μg/ml of SMPB in PBS, pH 8.3. Washing of the wells was then carried out three times using 250 μl of PBS, pH 8.3, each time. For the preparation of the coating solutions, the appropriate thiol-RGD peptide was prepared in the following final concentrations in PBS, pH 8.3: 1 nM, 10 nM, 100 nM, 1 μM, 10 μM, 100 μM and 1 mM. After addition of 250 μl each of coating solution/well, the plates were incubated at room temperature overnight and then washed three times with PBS, pH 8.3. By addition of 250 μl each of a 5% strength BSA solution in PBS, pH 7.4, subsequent incubation for 2 hours at room temperature and washing with PBS, pH 7.4, non-specific cell-binding sites were blocked. Polystyrene surfaces, which from the coating were treated with a 5% strength BSA solution identically to the positive samples, functioned as negative coating controls. The adhesion of four cell cultures which were obtained from three different species was then investigated on the abovementioned surfaces coated with RGD peptide:
osteoblast cell line MC3T3 H1, obtained from the calvaria of neonatal mice (Heermeier et al., 1995, Cells and Materials, 5: 309-321), and
The cell species described were inoculated with an inoculation density of 48,000 cells/cm^2 into, as described above, Costar-48 well plates coated with RGD peptide, and then incubated for 1 hour at 37° C., 95% atmospheric humidity and 5% CO2. Cells unadhered during the experiment were then washed off twice with PBS, pH 7.4.
as §2

The subject of assay [4] is osteoblast cultures. The assay is described as follows: Adhesion of the different osteoblast cell species to thiolpeptide-coated BSA-polystyrene surfaces (statements over all cultures). The assay is classed as cell-based, mouse, human, rat. As to conditions: all osteoblast cultures employed. As for the experimental part: as §3
as §1, with “mM.” for “mM. After addition of 250 μl each of coating solution/well, the plates were incubated at room temperature overnight and then washed three times with PBS, pH 8.3.”
as §2

Assay [5] concerns human melanoma cell line M21L. Kind of assay: Adhesion of alphav beta3-/alphav beta5-negative control cells M21L to thiolpeptide-coated BSA-polystyrene surfaces. The assay is classed as cell-based. As to conditions: BSA-pretreated polystyrene coated with thiolpeptide. As to the method:
as §3
as §1, with “mM.” for “mM. After addition of 250 μl each of coating solution/well, the plates were incubated at room temperature overnight and then washed three times with PBS, pH 8.3.”
as §2

For assay [6], the system named is primary human osteoblasts. The assay is described as follows: Adhesion of primary human osteoblasts to BSA-pretreated polystyrene surfaces coated with thiol-RGD peptides via sulpho-SMPB. It is filed as cell-based. The following applies: 48,000 cells/cm^2, 1 hour. As to the method:
as §3
as §1, with “mM.” for “mM. After addition of 250 μl each of coating solution/well, the plates were incubated at room temperature overnight and then washed three times with PBS, pH 8.3.”
as §2

The subject of assay [7] is primary human osteoprogenitor cells. Kind of assay: Adhesion of primary human osteoprogenitor cells to BSA-pretreated polystyrene surfaces coated with thiol-RGD peptides via sulpho-SMPB. The assay is classed as cell-based. The following applies: 48,000 cells/cm^2, 1 hour. As for the experimental part: as §3
as §1, with “mM.” for “mM. After addition of 250 μl each of coating solution/well, the plates were incubated at room temperature overnight and then washed three times with PBS, pH 8.3.”
as §2

The test system of assay [8] is MC3T3 H1 osteoblasts. The assay is described as follows: Adhesion of MC3T3 H1 osteoblasts to PMMA moulded articles coated with acrylate RGD peptides. The assay is classed as cell-based, mouse. As to conditions: for maximal adsorption rates: 48,000 cells/cm^2, 1 hour. As to the method: For the covalent coupling of these peptides to polymerized PMMA (polymethyl methacrylate) surfaces, appropriate shaped articles of differing porosity (diameter: 10 mm; height: 2 mm) were prepared from three different PMMA components.
Bone cement based on PMMA (Merck KGaA, Germany, Licence No. 5181.00.00) corresponding to the product description (40 g of powder+20 ml of liquid).
10 g of PMMA/PHEMA (polyhydroxyethyl methacrylate) granules, particle size 0.5-0.6 mm (Biomet) were mixed with 1.3 ml of an HEMA solution (68.6% HEMA, 29.4% TEGMA [triethylene glycol dimethacrylate], 2% tBPB, [tert-butyl peroxybenzoate]) and adhered by means of this to a porous support material.
10 g of PMMA granules (Plex Y7H, Rohm, Germany), particle fraction 0.7-2 mm were mixed with 1.5 ml of a methyl methacrylate (MMA) solution (68.6% MMA, 29.4% TEGMA, 2% tBPB) and adhered by this means to a porous support material.
For the covalent coupling of the acrylate peptides to the prepolymerized PMMA moulded articles, stock solutions of the acrylate peptides 1, 2, 3 and 4 were prepared in a final concentration of 100 μM in each case in DMSO/0.2% camphorquinone (w/v). Then, by dilution with isopropanol/0.2% camphorquinone (w/v), concentration series having final peptide concentrations of 0.1 nM, 1 nM, 10 nM, 100 nM, 1 μM and 10 μM in each case were prepared. The moulded articles were incubated in daylight and at room temperature for 2 hours and then stored at 4° C. in the dry state. Before use, the samples were washed with PBS, pH 7.4, to remove unbound peptides and stored at 4° C. in PBS, pH 7.4, overnight.
By addition of 250 μl/moulded article each of a 5% strength BSA solution in PBS, pH 7.4, and subsequent incubation for 2 hours at room temperature and washing once with PBS, pH 7.4, non-specific cell-binding sites were blocked.
Subsequently, the adhesion of osteoblasts of the MC3T3 H1 line, obtained from the calvaria of neonatal mice (Heermeier et al., 1995, Cells and Materials 5: 309-321) to the above-described peptide-coated surfaces was investigated.
The MC3T3 H1 osteoblasts were inoculated at an inoculation density of 48,000 cells/cm^2, as described above, in Costar 48-well plates, with PMMA moulded articles coated with RGD peptide and then incubated for 1 hour at 37° C., 95% atmospheric humidity and 5% CO2. Cells non-adhered during the experiment were then washed off twice with PBS, pH 7.4.
as §2

The mark [9] stands for this setting: bone cement shaped articles, FIG. 8.
Setting [10] is: different PMMA moulded articles.

As for `N=C(N)NCCC[C@@H]1NC(=O)[C@H](CCCCN)NC(=O)[C@@H](Cc2ccccc2)NC(=O)[C@H](CC(=O)O)NC(=O)CNC1=O` [cyclic RGDfK, cyclo-RGDfK (Arg-Gly-Asp-DPhe-Lysine)], in assay [1], the “inhibition of osteoblast binding to thiolpeptide 1-sulpho-SMPB derivative-coated surfaces” value is on record as “completely inhibited”.
In the case of “cyclo-RGDfK NH--CO--CH2 --CH2 --S-- (sulpho-SMPB) [thiolpeptide 1-(sulpho-SMPB) derivative]”, the “maximum adsorption rate (of the inoculated cells)” value was “about 70%” in assay [2]; 90-100% in assay [3] (MC3T3 H1 mouse osteoblasts, 48,000 cells/cm^2, 1 hour); “about 80%” in assay [6]; “about 80%” in assay [7]. Also, in assay [3], the “stimulation of the adhesion of cultured mouse MC3T3 H1 osteoblasts” value was “strong and dose-dependent stimulation”. Also, the “cell adsorption rates raised compared with 5% BSA-coated surfaces” value in assay [4] is 20-40 fold. Besides, the “cell adhesion of alphav beta3-/alphav beta5-negative control cells (M21L)” value in assay [5] is “do not show any significant cell adhesion”.
Turning to “cyclo(RGDf[acrylic-ahx-K]) [acrylate peptide 1]”, the “stimulation of cell adhesion (in words)” value in assay [8] (PMMA carriers, comparison of anchor lengths) was “almost inactive”. In addition, the “cell adsorption rates increased in comparison with uncoated surfaces” value in assay [8] (setting [9]) is reported as “about 1.5 fold”. Besides, the maximal adsorption rates entry in assay [8] (setting [10]) is “about 20%”.
On to “cyclo-RGDvE CO--NH--CH2 --CH2 --CH2 --CH2 --CH2 --CO--NH--CH2 --CH2 --S-- (sulpho SMPB) [thiolpeptide 3-(sulfo-SMPB), reference compound]”, for which the “stimulation of the adhesion of cultured mouse MC3T3 H1 osteoblasts” value in assay [3] is recorded as “markedly weaker effect”.
“cyclo(RGDf[acrylic-ahx-tEG-tEGK]) [acrylate peptide 4]”: the “cell adsorption rates increased in comparison with uncoated surfaces” value in assay [8] (setting [9]) is 5-15 fold; in assay [8] (porous PMMA/PHEMA granule shaped articles, FIG. 9), 2-5 fold; in assay [8] (porous Plex Y7H granule shaped articles, FIG. 10), 2-3 fold. Moreover, in assay [8] (setting [10]), the maximal adsorption rates is given as 80-100%. Besides, the EC50 in assay [8] (different PMMA moulded articles, read-out: half-maximal cell bindings, RGD peptide concentration in the coating solution) fell in the range of 0.001 to 10 µM.
